Data reported in ChEMBL document CHEMBL1201862, “PubChem BioAssay data set” (2004).
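Step 1: Grow cells in 96-well plates. Step 2: Expose to compound for 48 hours at 5 concentrations. Step 3: Interpolate endpoints linearly; if unreached, use highest concentration. The concentration for 50% growth inhibition is given as GI50.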 Calls of active or inactive are those of the source. Cut-off read from the data, not from the text of the source: active = GI50 up to about 1.1 µM and inactive = higher.

Legend:
Test in all cases: NCI anticancer screen, dose series, 48 h
A498 = test system: A498
ACHN = test system: ACHN
HCC 2998 = test system: HCC 2998
HCT-15 = test system: HCT-15
HL-60 = test system: HL-60
HOP-62 = test system: HOP-62
M14 = test system: M14
Malme-3M = test system: Malme-3M
NCI-H226 = test system: NCI-H226
OVCAR-3 = test system: OVCAR-3
OVCAR-5 = test system: OVCAR-5
OVCAR-8 = test system: OVCAR-8
SF-295 = test system: SF-295
SK-MEL-5 = test system: SK-MEL-5
SN12C = test system: SN12C
SNB-19 = test system: SNB-19
SNB-75 = test system: SNB-75

Row | SMILES | GI50 (A498) | GI50 (ACHN) | GI50 (HCC 2998) | GI50 (HCT-15) | GI50 (HL-60) | GI50 (HOP-62) | GI50 (M14) | GI50 (Malme-3M) | GI50 (NCI-H226) | GI50 (OVCAR-3) | GI50 (OVCAR-5) | GI50 (OVCAR-8) | GI50 (SF-295) | GI50 (SK-MEL-5) | GI50 (SN12C) | GI50 (SNB-19) | GI50 (SNB-75)
1 | C/C(CC(=O)Nc1ccc(Cl)c(Cl)c1)=N/NC(=O)C[N+](C)(C)C | > 100 µM (inactive) | > 100 µM (inactive) | > 100 µM (inactive) | > 100 µM | 44 µM (inactive) | > 100 µM (inactive) | > 100 µM (inactive) | > 100 µM (inactive) | > 100 µM (inactive) | > 100 µM (inactive) | > 100 µM (inactive) | > 100 µM (inactive) | > 100 µM (inactive) | > 100 µM (inactive) | > 100 µM (inactive) | > 100 µM (inactive) | > 100 µM (inactive)
2 | CC1=C(C(=O)CC(=O)C(=O)NC2C3CC4CC(C3)CC2C4)Sc2ccccc2N1 (centres undefined) | > 100 µM (inactive) | > 100 µM (inactive) | > 100 µM (inactive) | > 71.4 µM | > 100 µM (inactive) | > 100 µM (inactive) | > 100 µM (inactive) | > 100 µM (inactive) |  | > 100 µM (inactive) | > 100 µM (inactive) | > 100 µM (inactive) | > 100 µM (inactive) | > 83.6 µM (inactive) | > 100 µM (inactive) | > 100 µM (inactive) | > 100 µM (inactive)
3 | COc1cc(C2c3cc4c(cc3[C@@H](OCCN)[C@H]3COC(=O)C23)OCO4)cc(OC)c1O (some centres undefined) | 0.212 µM (active) | 0.181 µM (active) | 0.671 µM (active) | 2.87 µM | < 0.01 µM (active) | 0.069 µM (active) | 0.383 µM (active) | 0.136 µM (active) | 0.0873 µM (active) | 1.27 µM (inactive) | 0.644 µM (active) | 0.55 µM (active) | 0.108 µM (active) | 0.2 µM (active) | 0.107 µM (active) | 0.104 µM (active) | 0.238 µM (active)
4 | CCCCCCCCCCCCCC(=O)OC1C(CO)OC(=O)C1O (centres undefined) | > 100 µM (inactive) | > 100 µM (inactive) | > 100 µM (inactive) | > 100 µM | 34.3 µM (inactive) | > 100 µM (inactive) | > 100 µM (inactive) | > 100 µM (inactive) |  | > 100 µM (inactive) | > 100 µM (inactive) | > 100 µM (inactive) | 58.3 µM (inactive) | > 100 µM (inactive) | > 100 µM (inactive) | 71.4 µM (inactive) | > 100 µM (inactive)
5 | COc1ccc(OC2(c3cc(OC)ccc3OC)OC(=O)c3ccccc32)cc1 (centres undefined) | > 100 µM (inactive) | > 100 µM (inactive) | > 100 µM (inactive) | > 100 µM | > 100 µM (inactive) | > 100 µM (inactive) | > 100 µM (inactive) | > 100 µM (inactive) | > 100 µM (inactive) | > 100 µM (inactive) | > 100 µM (inactive) | > 100 µM (inactive) | > 100 µM (inactive) | > 100 µM (inactive) | > 100 µM (inactive) | > 100 µM (inactive) | > 100 µM (inactive)
6 | Cc1noc2cccc(OCc3ccccc3)c12 |  | 50.7 µM (inactive) |  | 50.8 µM | 17.3 µM (inactive) | > 100 µM (inactive) | 92.5 µM (inactive) | > 100 µM (inactive) | 46.5 µM (inactive) | 94.8 µM (inactive) | 25.6 µM (inactive) | 67.1 µM (inactive) | 72.4 µM (inactive) | 17.1 µM (inactive) | > 100 µM (inactive) | 91 µM (inactive) | 30.6 µM (inactive)
7 | CCN(CC)C(=O)CC12CCCCC1=Nc1ccccc12 (centres undefined) | > 100 µM (inactive) | > 100 µM (inactive) | > 100 µM (inactive) | > 100 µM | > 100 µM (inactive) | > 100 µM (inactive) | > 100 µM (inactive) | > 100 µM (inactive) |  | > 100 µM (inactive) | > 100 µM (inactive) | > 100 µM (inactive) | > 100 µM (inactive) | > 100 µM (inactive) |  |  | > 100 µM (inactive)
8 | COc1cc([C@H]2c3cc4c(cc3[C@H](NCc3ccc([N+](=O)[O-])cc3)C3COC(=O)[C@H]32)OCO4)cc(OC)c1O (some centres undefined) | 0.378 µM (active) | 0.378 µM (active) | 1.23 µM (inactive) | 1.61 µM | 1.02 µM (active) | 0.26 µM (active) | 1.97 µM (inactive) | 1.56 µM (inactive) | 0.324 µM (active) | 3.08 µM (inactive) | 2.89 µM (inactive) | 1.63 µM (inactive) | 0.681 µM (active) | 2.29 µM (inactive) | 0.807 µM (active) | 1.01 µM (active) | 1.45 µM (inactive)
9 | Cc1nc2c(n1Cc1ccc(Cl)cc1)C(=O)c1ccccc1C2=O |  | 27 µM (inactive) | > 75 µM (inactive) | 1.07 µM | 4.36 µM (inactive) | 20.8 µM (inactive) | > 75 µM (inactive) | 35.6 µM (inactive) | > 75 µM (inactive) | 67.3 µM (inactive) |  | 8.99 µM (inactive) | 11 µM (inactive) | 16.4 µM (inactive) | > 75 µM (inactive) | > 75 µM (inactive) | 19.9 µM (inactive)
